Measurements from the METLIN SMRT retention time set (Domingo-Almenara et al. 2019).

Experiment: gradient 5% acetonitrile 3 min, to 50% in 2 min, to 85% in 15 min, held 3 min, 100 µL/min
Conditions: column: Zorbax Extend-C18 2.1 x 50 mm; eluents: water / acetonitrile, 0.1% formic acid
In short: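 Using water and acetonitrile that each contained 0.1% formic acid, mixtures of ~100 pure standards were separated at 100 μL/min on a Zorbax Extend-C18 column (2.1 × 50 mm, 1.8 μm). The HPLC fed a quadrupole time-of-flight mass spectrometer working in positive and negative ionization mode, with dead and dwell volumes of 40 μL and 900 μL. Data were acquired over 3 months. Retention time was read from computationally picked adduct peaks after manual inspection of each.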

| SMILES | RP-LC retention time |
| --- | --- |
| CC(C)CNC(=O)Nc1ccc2c(c1)CCN2S(C)(=O)=O | 733 s |
| CN1CCN(CCNC(=O)C2CCCN(c3ncnc4c3nc3n4CCCCC3)C2)CC1 (configuration not stated) | 570 s |
| OCC(O)C1OCOC(C(O)CO)C1O (configuration not stated) | 719 s |
| Cc1ccc(NC(=O)N2CCC(OC3CCN(S(C)(=O)=O)CC3)CC2)cc1Cl | 867 s |
| Cc1nnc2c(NC(=O)c3cc(F)ccc3F)cccn12 | 705 s |
| O=C1C(=O)N(C2CCN(S(=O)(=O)c3ccc(F)c(Cl)c3)CC2)CCN1Cc1ccccc1 | 862 s |
| COc1cc(NC(=O)CCc2c(C)nn(-c3cc(N(C)C)ncn3)c2C)cc(OC)c1 | 792 s |
| COc1ccc(CNC(=O)C2CCN(S(=O)(=O)c3cn(C(C)C)cn3)CC2)cc1 | 733 s |
| O=C(Nc1cccc(C(F)(F)F)c1)Nc1cccn2ncnc12 | 896 s |
| CCn1cc(CN(C)C(=O)C2N(C(C)C)C(=O)C23CCCC3)c(C)n1 (configuration not stated) | 612 s |
| O=C(C1CCN(c2nnc(-c3ccccc3)o2)CC1)N1CCN(C2CCCCC2)CC1 | 628 s |
| O=C(Cc1ccsc1)NCCn1c(=O)n(Cc2ccc(F)cc2)c2cccnc21 | 781 s |
| CCCN(CCC)Cc1ccc(CNC(=O)C2CCCN(c3nnc(N4CCCC4=O)s3)C2)o1 (configuration not stated) | 614 s |
| O=C(c1cn(-c2cc(N3CCSCC3)ncn2)cn1)N1CCc2ccccc21 | 952 s |
| Cc1ccc(C(=O)N2C[C@@H](F)C[C@H]2C(=O)N2CCCCC2)c(C)c1 | 740 s |
| CCn1cc(CN2CCC(N3CC4(CCCCC4)C3c3ccncc3)CC2)cn1 (configuration not stated) | 565 s |
| CC(C)CN(CCCNC(=O)C1CCN(c2cnn(C)c(=O)c2)C1)CC(C)C (configuration not stated) | 589 s |
| CCCN1C(=O)COc2ccc(-c3csc(NC(=O)c4cccc(Br)c4)n3)cc21 | 1160 s |
| CCOc1cc2ncc(C#N)c(Nc3ccc(OCc4ccccn4)c(Cl)c3)c2cc1NC(=O)/C=C/CN(C)C | 620 s |
| Fc1ccc(Br)cc1-c1nc2ccc(Cl)cn2c1Nc1ccc2c(c1)OCCO2 | 929 s |

| SMILES | RP-LC retention time |
| --- | --- |
| Cc1cc(C)cc(N2C=C(C(=O)N3CCOCC3)S(=O)(=O)c3ccc(F)cc32)c1 | 788 s |
| Cn1c2c(c(=O)n3ncc(C(=O)N4CCN(c5ccccn5)CC4)c13)CN(Cc1ccccc1)CC2 | 602 s |
| CCc1ccc(-c2cc(C(F)(F)F)on2)cc1S(=O)(=O)N1CCCCC1CC (configuration not stated) | 749 s |
| O=C(Nc1ccccc1Br)N1CCN(CCn2cnc3cccnc32)CC1 | 595 s |
| Cc1cc(-c2ccc(N3C(=O)CC4(CCCC4)C3=O)c(C)c2)ccc1N1C(=O)CC2(CCCC2)C1=O | 1170 s |
| O=C(Cn1c(-c2cccs2)cc2cc(F)ccc21)N1CCN(c2ccccn2)CC1 | 761 s |
| COc1ccc(CNC(=O)C2CCN(c3cncnc3N3CCOCC3)CC2)cc1 | 651 s |
| COc1ccc(NC(=O)C2CCN(S(C)(=O)=O)c3cc(C)ccc3O2)cc1Cl (configuration not stated) | 957 s |
| Cc1csc(-c2cc(S(=O)(=O)N3c4ccccc4CC3C)c(C)s2)n1 (configuration not stated) | 1220 s |
| Cc1cc(C(=O)Nc2cccc(Cl)c2)nc2ccnn12 | 988 s |
| COc1cccc(-c2nc(Cn3cnc4nc5c(cc4c3=O)CC(C)CC5)c(C)o2)c1OC (configuration not stated) | 941 s |
| CCCNC(=O)Cn1cnc2sc(C(=O)NC3CCCC(C)C3C)c(C)c2c1=O (configuration not stated) | 857 s |
| CC(C)N1CCn2c(nc3cc(C(=O)NCc4ccc(Cl)cc4)ccc32)C1=O | 741 s |
| CCOC(=O)c1c(C)[nH]c(C(=O)N2CCC(CC(=O)NC(C)CC)CC2)c1C (configuration not stated) | 715 s |
| Cc1ccc(CN2CCC(N3CC4(CCCCC4)C3c3ccncc3)CC2)o1 (configuration not stated) | 591 s |
| CCC(=O)N1CCc2cc(S(=O)(=O)CCC(=O)N3CC(C)CC(C)C3)ccc21 (configuration not stated) | 871 s |
| CCc1ccccc1NC(=O)C1CCCN(S(=O)(=O)c2cn(CC)cn2)C1 (configuration not stated) | 726 s |
| Cc1ccc(-c2ncccc2CNS(=O)(=O)c2ccc(Cl)s2)cc1 | 780 s |
| CC(=O)N1CCc2cc(-c3ccc(C(=O)N4CCN(Cc5ccc6c(c5)OCO6)CC4)cc3)ccc21 | 647 s |
| O=C(c1ccc2c(c1)OCO2)N1CCN(c2cc(-c3ccccc3)[nH]n2)CC1 | 733 s |

| SMILES | RP-LC retention time |
| --- | --- |
| Cc1c(-c2noc(-c3ccccc3F)n2)nnn1Cc1cccc(F)c1 | 1050 s |
| O=C(Cc1cccs1)NCCn1ncc2c(=O)n(Cc3ccccc3F)cnc21 | 666 s |
| COc1ccc2nc(C(=O)NCc3cccc(F)c3)cn2n1 | 778 s |
| CN(CCc1ccc(Cl)c(Cl)c1)CCN1CCCC1 | 646 s |
| O=C(/C=C/c1ccccc1)NC(NC(=S)Nc1cccc2cccnc12)C(Cl)(Cl)Cl (configuration not stated) | 1020 s |
| COc1ccc(-c2cn3cccnc3n2)cc1NC(=O)c1c(-c2ccccc2Cl)noc1C | 770 s |
| CCOC(=O)CC1(NC(=O)N2CCc3c(c(C(=O)N4CCCC4)nn3C)C2)CCCCC1 | 764 s |
| CC1CCN(C(=O)C2CCN(S(=O)(=O)c3ccc(-c4noc(C5CC5)n4)cc3)CC2)CC1 | 1040 s |
| COc1ccccc1-c1nnc(-c2cccc(S(=O)(=O)N3CCCCC3)c2)o1 | 981 s |
| C[C@@H](NC(=O)c1ccccc1Br)C(=O)NCc1cscn1 | 635 s |
| O=S(=O)(c1ccc2c(c1)CCCN2)N1CCC[C@H]2CCCC[C@@H]21 | 1190 s |
| CN1C(=O)c2cc(C(=O)NCCCN3CCCC3)nn2CC1(C)C(=O)NCc1ccccc1 (configuration not stated) | 589 s |
| Cc1cccc(-c2nc3ccccn3c2NC(=O)Nc2cc(F)ccc2F)c1 | 715 s |
| COCc1nc(CCNC(=O)C2CCCO2)no1 (configuration not stated) | 593 s |
| COc1ccc2c(c1)CC(C(=O)NCCCN1CCN(C3CCCCC3)CC1)CO2 (configuration not stated) | 576 s |
| COC(=O)c1c(-c2ccc(C)cc2)csc1NC(=O)C1CCN(C(C)=O)CC1 | 932 s |
| CCn1c(CNC(=O)C2CCC2)nc2c1CN(S(=O)(=O)c1ccc(C)cc1)CC2 | 649 s |
| CC(C)NC(=O)CSc1nccnc1N1CCN(c2ccccc2)CC1 | 867 s |
| Cn1cnc(S(=O)(=O)N2CCC(C(=O)Nc3ccc(F)c(Cl)c3)CC2)c1 | 762 s |
| CCn1cc(CCNC(=O)Nc2cc(C)cc(C)c2)c2cccnc21 | 705 s |

The remaining lines, values ahead:

| RP-LC retention time | SMILES |
| --- | --- |
| 624 s | COc1ccc(N2CCN(C(=O)CN3C(=O)CN(C)C(=O)c4ccccc43)CC2)cc1 |
| 669 s | O=C(Nc1ccccc1NC(=O)c1ccc(Br)o1)c1cccnc1 |
| 666 s | CCOC(=O)c1cccc(Nc2c(C(=O)N3CCC(C)CC3)cnc3nc(C)ccc23)c1 |
| 769 s | CC(NC(=O)c1cc(=O)[nH]c2ccc(Br)cc12)c1ccccc1 (configuration not stated) |
| 863 s | O=C(CN1C(=O)CC(c2ccccc2)S(=O)(=O)c2ccccc21)Nc1cccc(F)c1 (configuration not stated) |
| 694 s | Cn1c(-c2ccccc2)nn(CCNC(=O)c2cc3ccccc3o2)c1=O |
| 588 s | CCn1c(=O)c(C(=O)N2CCN(c3ccccn3)CC2)nc2ccccc21 |
| 805 s | COc1cccc(N2CCN(c3ccnc(SCC(=O)Nc4ccc(Cl)cc4)n3)CC2)c1 |
| 867 s | CCOC(=O)CNC(=O)Nc1cccc(-c2nnc(Cc3ccc(C)cc3)o2)c1 |
| 1110 s | COc1ccccc1N1CCN(c2cc(SCC(=O)Nc3ccccc3Cl)ncn2)CC1 |
| 912 s | CCS(=O)(=O)c1ccc(-c2cccc(NC(=O)c3ccc4ccccc4n3)c2)nn1 |
| 572 s | Cc1cnc(-c2ccccc2)n1C1CN(Cc2ccc(F)cc2F)C1 |
| 764 s | CC(=O)Nc1ccc(S(=O)(=O)N2CC=C(c3cn(C)c4ncccc34)CC2)cc1 |
| 754 s | CN1CCc2c(n(CC(O)Cn3nnc4ccccc43)c3ccccc23)C1=O (configuration not stated) |
| 775 s | O=C(c1cccc(Br)c1)N1CCC(n2c(-c3ccoc3)nc3cccnc32)C1 (configuration not stated) |
| 711 s | COc1ccc(CC(=O)N2CCC3(CC2)NC(=O)c2ccccc2N3C)cc1OC |
| 791 s | CCOc1ccc(N2CC(NC(=O)C(=O)c3c[nH]c4ccccc34)CC2=O)cc1 (configuration not stated) |
| 895 s | O=C(NCc1ccc2c(c1)OCO2)C1CCCN(c2nccn3nc(-c4ccccc4Cl)cc23)C1 (configuration not stated) |
| 756 s | Cc1nc(OCC(=O)Nc2c(C)cccc2C)c2ccccc2n1 |
| 791 s | CCN1C(=O)c2cccnc2Sc2cc(CNC(=O)c3cccc(F)c3)ccc21 |
| 662 s | CN(CC(=O)Nc1ccc(S(N)(=O)=O)cc1)c1nc2ccccc2s1 |
| 744 s | CCS(=O)(=O)Nc1ccc(-c2noc(CNC(=O)c3ccccc3)n2)cc1 |
| 1090 s | CCn1cc(C(=O)Nc2cccc(Br)c2)c2nn(-c3ccccc3)c(=O)c-2c1 |
| 918 s | COc1ccc(NS(=O)(=O)c2ccc3c(c2)C(=O)N(C)c2ncccc2O3)cc1Cl |
| 678 s | Cn1ccc2c(cc(C(=O)NCc3ccccc3F)n2C)c1=O |
| 596 s | O=C1CCCc2cc(S(=O)(=O)NCC3CCN(Cc4ccccc4F)CC3)ccc2N1 |
| 936 s | Cc1cccc(S(=O)(=O)N2CCC(C)(C(=O)NCc3ccc(F)cc3)CC2)c1 |
